Test results taken from US20210024483A1, “HETEROCYLCOALKENYL DERIVATIVES USEFUL AS AGONISTS OF THE GPR120 AND / OR GPR40” (Janssen Pharmaceutica NV, priority 2018, published 2021).

Legend:
GPR40 = GPR40 (UniProt O14842); test: GPR40 Calcium Flux Assay; type: cell-based; conditions: transfected HEK293 cells stably expressing human or rat GPR40; species not given
Experimental: Biological Example 3: In Vitro Assay
Compounds were tested in a calcium flux assay using transfected HEK293 cells stably expressing either human GPR40 or rat GPR40. Human GPR40 expressing cells were cultured in DMEM-High Glucose media supplemented with 10% fetal bovine serum, 1×L-Glutamine, 1× Penicillin/Streptomycin and 500 μg/mL G418. Rat GPR40 expressing cells were cultured in DMEM-High Glucose media supplemented with 10% fetal bovine serum and 1 μg/mL puromycin. Cells were plated into poly-D-lysine coated 384-well plates and cultured overnight in a 37° C. humidified tissue culture incubator under 5% CO2/90% O2 atmosphere.
On the day of the experiment, the culture media was replaced with assay buffer (HBSS, 20 mM HEPES, 0.1% BSA) and the cells incubated at 37° C. for 1 h. Calcium-sensitive fluorescent dye (Fluo 8 No-Wash Calcium Dye, ABD Bioquest) was then added and the cells incubated for another 30 min at 37° C. followed by 15 min at room temperature while protected from the light. The cell plate and a plate of diluted compounds of Formula (I) were loaded into a fluorescent plate reader that added compounds onto the cells while measuring the fluorescence intensity of each well. The plate reader recorded fluorescence intensity at 1 second intervals for 8 min and provided the data for analysis in an Excel format. EC50 values were calculated using Prism (GraphPad) software.

[1] = biological target: T1, Human GPR120 short form (short splice variant, NM_001195755.1) (Homo sapiens, UniProt Q5NUL3); test: Human GPR120 Calcium Flux Assay; type: cell-based; conditions: HEK-293 cells, 4200 cells/well, read-out: Human GPR120 Calcium Flux Assay Procedure B EC50
T1 construct: expressed in transfected cells; host or cells: HEK293
T1 sequence (Q5NUL3 1-361): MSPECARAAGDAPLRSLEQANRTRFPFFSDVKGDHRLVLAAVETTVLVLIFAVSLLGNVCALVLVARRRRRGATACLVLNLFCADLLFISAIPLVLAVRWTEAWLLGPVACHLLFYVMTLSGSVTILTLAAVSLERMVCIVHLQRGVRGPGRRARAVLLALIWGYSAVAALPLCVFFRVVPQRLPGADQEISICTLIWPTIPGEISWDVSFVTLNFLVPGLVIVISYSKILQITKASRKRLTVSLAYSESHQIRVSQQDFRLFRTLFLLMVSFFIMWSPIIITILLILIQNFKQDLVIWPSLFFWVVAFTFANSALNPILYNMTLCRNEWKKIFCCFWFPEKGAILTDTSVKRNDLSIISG
Excerpt: In Vitro Assay: Human GPR120 in Calcium Flux Assay
This in vitro assay serves to assess test compound agonist activity against the short splice variant (SVS with Accession number NM_001195755.1 confirmed by sequencing data) of the GPR120 receptor. The Human Short splice variant #2 (NM_001195755.1) is missing an in-frame coding exon compared to variant 1 (the Human Long splice variant NM_181745.3), resulting in a shorter isoform (GPR120-S) lacking a 16 aa protein segment compared to isoform GPR120-L. The assay platform utilizes HEK-293 cells stably transfected to express the Human GPR120 short form. These cells are first loaded with the Ca^+2 sensitive dye, Fluo-4 NW. Upon stimulation, intracellular released Ca^+2 can bind to the dye and alter its fluorescence intensity. This increase in fluorescence signal, and thus the flux in intracellular [Ca^2+], is detected and quantitated by fluorescence imaging using a FLIPR reader. The effect of the agonist is measured as a function of concentration and used to calculate an EC50 based upon a response curve. […]
In this procedure 4200 cells/well were employed.
A Human GPR120 clone (Genbank accession number NM_001195755.1) was placed into the pcDNA3.1 mammalian expression vector carrying the neomycin resistance gene. A stable mammalian cell was generated by placing the above clone into a HEK293 background. Clonal cells responding to long chain fatty acids had expression levels of GPR120 confirmed by RT-qPCR. Human HEK-GPR120 cells were cultured in Dulbecco's Modified Eagle's Medium (DMEM)/F12 medium supplemented with 10% fetal bovine serum (FBS), 1% L-Glutamine and 1% penicillin/streptomycin and 0.5 mg/ml G-418. Cells were split 2 times a week to keep the cells in the log-phase growth.
In preparation for the assay, HEK cells stably transfected with Human GPR120 (2.5K cells per well in 25 uL growth medium) were seeded into 384-well plates and then incubated overnight (37° C., 5% CO2). The next day, the media was changed to 20 μL assay buffer and the cell starved for 1 h at 37° C. The dye loading solution (2× dye) was prepared using 10 mL assay buffer, 100 μL of 250 mM probenecid, 1 bottle of Component A, and 20 μl of dye in DMSO. Twenty μL of the 2× dye loading buffer was then added to each well. The plates were incubated at 37° C. for 30 min, then at room temperature for an additional 15 minutes, before performing the assay on FLIPR.
The assay was performed on a FLIPR plate reader using the following parameters. Baseline was read for 10 seconds at 1 sec intervals. The program was set to transfer 10 μL of ligand from compound plate to cell plate after baseline reading. Aspiration was executed at: 10 μL/sec speed, 4.6 μL height; Dispensing was executed at: 30 μL/sec speed, 45 μL height. After compound addition, each well was read for 300 sec, with measurements collected at 1 sec intervals.
The kinetic data from the FLIPR was based upon a 5 minute window for data collection. The fluorescence of each sample well was used for individual calculations of a normalized RFU value, which was defined as maximum response minus the minimum response. The normalized fluorescence reading (RFU) was calculated as follows:
The data were fitted to a sigmoidal dose-response curve with a variable Hill slope (<2) using nonlinear regression with GraphPad Prism 5.0 to calculate the EC50 values. The Fitting Equation was: Y=Bottom+(Top−Bottom)/(1+10^((Log EC50−X)*HillSlope)), where X is the log of the concentration and Y is the response.

Row | SMILES | EC50 (GPR40) | EC50 [1]
1 | O=C(O)CCc1ccc(OCC2=C(CC3CCCCC3)CCOC2)cc1C(F)(F)F [compound 718] | 1430 nM | > 5000 nM
2 | Cc1ccc(C2=C(COc3ccc(CCC(=O)O)c(C(F)(F)F)c3)COCC2)cc1 [compound 668] |  | 498 nM
3 | O=C(O)CCc1ccc(OCC2=C(c3ccc(Cl)c(Cl)c3)CCOC2)cc1C(F)(F)F [compound 680] |  | 2630 nM
4 | O=C(O)CCc1ccc(OCC2=C(C3CCC3)CCOC2)cc1Cl [compound 725] | 588 nM | 2340 nM
5 | O=C(O)CCc1ccc(OCC2=C(C3C=CCC3)CCOC2)cc1 (stereo not drawn) [compound 740] | 2080 nM | 1140 nM
6 | O=C(O)CCc1ccc(OCC2=C(Cc3ccc(Cl)cc3)CCOC2)cc1Cl [compound 709] | 2300 nM | > 5000 nM
7 | CC(C)CC1=C(COc2ccc(CCC(=O)O)c(Cl)c2)COCC1 [compound 732] | 1060 nM | > 5000 nM
8 | Cc1c(CCC(=O)O)ccc(OCC2=C(c3ccc(Cl)cc3F)CCOC2)c1C [compound 667] |  | 115 nM
9 | CCC1=C(COc2ccc(CCC(=O)O)c(C(F)(F)F)c2)COCC1 [compound 716] | 571 nM | 1840 nM
10 | O=C(O)CCc1ccc(OCC2=C(c3ccccc3OC(F)(F)F)CCOC2)cc1C(F)(F)F [compound 674] |  | > 5000 nM
11 | O=C(O)CCc1ccc(OCC2=C(C3CCCC3)CCOCC2)cc1 [compound 780] | 2660 nM | 1310 nM
12 | O=C(O)CCc1ccc(OCC2=C(Cc3ccccc3)CCOC2)cc1 [compound 688] | 3250 nM | 2940 nM
13 | Cc1cccc(C)c1C1=C(COc2ccc(CCC(=O)O)c(Cl)c2)COCC1 [compound 669] |  | > 5000 nM
14 | CC(C)Oc1ccccc1C1=C(COc2ccc(CCC(=O)O)c(C(F)(F)F)c2)COCC1 [compound 677] |  | > 5000 nM
15 | C=C(C1=C(COc2ccc(CCC(=O)O)c(Cl)c2)COCC1)c1ccccc1 [compound 720] | 339 nM | > 5000 nM
16 | C=C(C1=C(COc2ccc(CCC(=O)O)c(C(F)(F)F)c2)COCC1)c1ccc(F)cc1 [compound 703] | 68 nM | > 5000 nM
17 | COc1cccc(C2=C(COc3ccc(CCC(=O)O)c(C)c3C)COCC2)c1 [compound 656] |  | 868 nM
18 | O=C(O)CCc1ccc(OCC2=C(c3cccc4c3OC(F)(F)O4)CCOC2)cc1C(F)(F)F [compound 673] |  | > 5000 nM
19 | O=C(O)CCc1ccc(OCC2=C(C3CCCCC3)CCOC2)cc1C(F)(F)F [compound 729] | 847 nM | 2680 nM
20 | C=C(C1=C(COc2ccc(CCC(=O)O)c(C(F)(F)F)c2)COCC1)c1ccccc1 [compound 687] | 54 nM | > 5000 nM
21 | CCC(C)C1=C(COc2ccc(CCC(=O)O)c(C(F)(F)F)c2)COCC1 (stereo not drawn) [compound 734] | 744 nM | 10100 nM
22 | Cc1cccc(C)c1C1=C(COc2ccc(CCC(=O)O)c(C(F)(F)F)c2)COCC1 [compound 671] |  | > 5000 nM
23 | Cc1ccc(C2=C(COc3ccc(CCC(=O)O)cc3)CCOCC2)cc1F [compound 783] | 7880 nM | 1360 nM
24 | O=C(O)CCc1cc(F)c(OCC2=C(Cc3ccc(Cl)cc3)CCOC2)c(F)c1 [compound 721] | > 10000 nM | 2420 nM

Row | SMILES | EC50 (GPR40) | EC50 [1]
25 | Cc1c(CCC(=O)O)ccc(OCC2=C(c3ccc(F)cc3F)CCOC2)c1C [compound 660] |  | 149 nM
26 | CC(C)CC1=C(COc2ccc(CCC(=O)O)c(C(F)(F)F)c2)COCC1 [compound 717] | 133 nM | 1300 nM
27 | O=C(O)CCc1ccc(OCC2=C(C3CCCC3)CCOC2)cc1C(F)(F)F [compound 731] | 93 nM | 818 nM
28 | O=C(O)CCc1ccc(OCC2=C(Cc3ccc(Cl)cc3)CCOC2)cc1 [compound 695] | 3190 nM | > 5000 nM
29 | Cc1cc(Cl)ccc1C1=C(COc2ccc(CCC(=O)O)c(C(F)(F)F)c2)COCC1 [compound 682] |  | > 5000 nM
30 | CC1(C)CCC=C1C1=C(COc2ccc(CCC(=O)O)c(C(F)(F)F)c2)COCC1 [compound 670] |  | > 5000 nM
31 | O=C(O)CCc1ccc(OCC2=C(c3ccc(OC(F)(F)F)cc3)CCOC2)cc1C(F)(F)F [compound 686] | 740 nM | > 5000 nM
32 | Cc1cc(C)c(C2=C(COc3ccc(CCC(=O)O)c(C(F)(F)F)c3)COCC2)cc1C [compound 681] |  | > 5000 nM
33 | COc1cc(Cl)ccc1C1=C(COc2ccc(CCC(=O)O)c(C)c2C)COCC1 [compound 662] |  | 2200 nM
34 | Cc1cc(CCC(=O)O)ccc1OCC1=C(c2ccccc2)COC1 [compound 630] |  | 229 nM
35 | O=C(O)CCc1ccc(OCC2=C(Cc3ccccc3)CCOC2)cc1C(F)(F)F [compound 678] |  | > 5000 nM
36 | Cc1ccc(C2=C(COc3ccc(CCC(=O)O)c(C)c3C)COCC2)cc1 [compound 655] |  | 94 nM
37 | Cc1c(CCC(=O)O)ccc(OCC2=C(c3cccnc3)CCOC2)c1C [compound 654] |  | > 5000 nM
38 | Cc1ccc(C2=C(COc3cc(C(F)(F)F)c(CCC(=O)O)c(C(F)(F)F)c3)COCC2)cc1 [compound 666] |  | 2750 nM
39 | COc1cc(C2=C(COc3ccc(CCC(=O)O)c(C)c3C)COCC2)ccc1Cl [compound 664] |  | > 5000 nM
40 | Cc1cc(C2=C(COc3ccc(CCC(=O)O)c(C)c3C)COCC2)ccc1F [compound 661] |  | 527 nM
41 | Cc1ccc(C2=C(COc3ccc(CCC(=O)O)c(C(F)F)c3)COCC2)cc1 [compound 665] |  | 832 nM
42 | Cc1c(CCC(=O)O)ccc(OCC2=C(c3ccccc3F)CCOC2)c1C [compound 651] |  | 202 nM
43 | Cc1c(CCC(=O)O)ccc(OCC2=C(c3ccc(Cl)c(F)c3)CCOC2)c1C [compound 663] |  | 170 nM
44 | Cc1cc(CCC(=O)O)ccc1OCC1=C(c2ccc(F)cc2)C[S+]([O-])C1 (stereo not drawn) [compound 627] |  | > 5000 nM
45 | COc1ccccc1C1=C(COc2ccc(CCC(=O)O)c(C(F)(F)F)c2)COCC1 [compound 676] |  | > 5000 nM
46 | Cc1cc(C2=C(COc3ccc(CCC(=O)O)c(C(F)(F)F)c3)COCC2)ccc1Cl [compound 679] |  | 1920 nM
47 | Cc1ccc(C2=C(COc3ccc(CCC(=O)O)c(C(F)(F)F)c3)COCC2)cc1C [compound 683] |  | 1060 nM
